Two substances from patent US6689750B1, “Bactericide compositions prepared and obtained from microccus varians” (priority 1995, dated 2004) can be followed below.

The subject of data set [1] is strain of Lactococcus lactis which produces lacticin 481. Description: Inhibition spectrum test on the lacticin 481 producer. Format: cell-based. The text has this: When the strain of Lactococcus lactis which produces lacticin 481 is inoculated in the presence of a […] extract, as previously described in the inhibition spectrum test, the growth of the said strain is seen to be inhibited. The strain of Lactococcus lactis which produces lacticin 481 is immune to its own bacteriocin, lacticin 481, but is not immune to the […] produced by either of the two Micrococcus varians strains according to the present invention.

Data set [2] deals with Lactobacillus helveticus (N 2). Kind of data set: Inactivation by enzymes, agar well test. Type of data set: physicochemical. The following applies: two indicator strains.
The subject of the next data set is Gram-negative bacteria. Kind of data set: Inhibition spectrum, agar well test, summary. Format: cell-based. The following applies: Table V. An excerpt: The inhibition spectrum of the supernatant is thus determined.

For lacticin 481, the “growth of the lacticin 481 producing strain” value in data set [1] is “immune”.
As for “variacin: bacteriocin from Micrococcus varians strains CNCM I-1586 and CNCM I-1587, amino acid sequence SEQ ID NO:1 (GSGVIPTISHECHMNSFQFVFTCCS)”, the “influence of catalase on bactericidal activity” value in data set [2] is recorded as “not found to exert any influence”. For the same substance, the “inhibitory effect on the growth of Gram-negative bacteria” value with Gram-negative bacteria is reported as “does not exert any inhibitory effect”.
